Test results as given in the kinase profiling compilation of Christmann-Franck et al. (2016).

Columns and labels:
Assay in all cases: KINOMEscan competition binding
Conditions in all cases: compound 10.0 µM
[1] = system: ABL1 (human), P00519 [Y253F]
ANKK1 (human) = ANKK1 (human) (UniProt Q8NFD2)
AURKA (human) = AURKA (human) (UniProt O14965)
CHEK2 (human) = CHEK2 (human) (UniProt O96017)
CRK2 (P.falciparum) = CRK2 (P.falciparum) (UniProt P61075)
CSF1R (human) = CSF1R (human) (UniProt P07333)
CSNK2A2 (human) = CSNK2A2 (human) (UniProt P19784)
CaMK1 (human) = CaMK1 (human) (UniProt Q14012)
EIF2AK2 (human) = EIF2AK2 (human) (UniProt P19525)
FGFR4 (human) = FGFR4 (human) (UniProt P22455)
GAK (human) = GAK (human) (UniProt O14976)
GRK1 (human) = GRK1 (human) (UniProt Q15835)
GSK3B (human) = GSK3B (human) (UniProt P49841)
IRAK1 (human) = IRAK1 (human) (UniProt P51617)
KIT (human) = KIT (human) (UniProt P10721)
MAP2K1 (human) = MAP2K1 (human) (UniProt Q02750)
MAP2K7 (human) = MAP2K7 (human) (UniProt O14733)
MAP3K10 (human) = MAP3K10 (human) (UniProt Q02779)
MAP3K15 (human) = MAP3K15 (human) (UniProt Q6ZN16)
MAP4K3 (human) = MAP4K3 (human) (UniProt Q8IVH8)
MAPKAPK2 (human) = MAPKAPK2 (human) (UniProt P49137)
MATK (human) = MATK (human) (UniProt P42679)
MERTK (human) = MERTK (human) (UniProt Q12866)
MYLK2 (human) = MYLK2 (human) (UniProt Q9H1R3)
PAK1 (human) = PAK1 (human) (UniProt Q13153)
PIK3CG (human) = PIK3CG (human) (UniProt P48736)
PIP5K1C (human) = PIP5K1C (human) (UniProt O60331)
PLK2 (human) = PLK2 (human) (UniProt Q9NYY3)
PRKCI (human) = PRKCI (human) (UniProt P41743)
ROCK1 (human) = ROCK1 (human) (UniProt Q13464)
RPS6KA1 KD2 (human) = RPS6KA1 KD2 (human) (UniProt Q15418)
RPS6KA4 KD2 (human) = RPS6KA4 KD2 (human) (UniProt O75676)
SIK1 (human) = SIK1 (human) (UniProt P57059)
SRC (human) = SRC (human) (UniProt P12931)
STK17A (human) = STK17A (human) (UniProt Q9UEE5)
STK17B (human) = STK17B (human) (UniProt O94768)
STK24 (human) = STK24 (human) (UniProt Q9Y6E0)
SYK (human) = SYK (human) (UniProt P43405)
ULK3 (human) = ULK3 (human) (UniProt Q6PHR2)
YES1 (human) = YES1 (human) (UniProt P07947)
Sequence of YES1 (human) (P07947 whole entry, looked up): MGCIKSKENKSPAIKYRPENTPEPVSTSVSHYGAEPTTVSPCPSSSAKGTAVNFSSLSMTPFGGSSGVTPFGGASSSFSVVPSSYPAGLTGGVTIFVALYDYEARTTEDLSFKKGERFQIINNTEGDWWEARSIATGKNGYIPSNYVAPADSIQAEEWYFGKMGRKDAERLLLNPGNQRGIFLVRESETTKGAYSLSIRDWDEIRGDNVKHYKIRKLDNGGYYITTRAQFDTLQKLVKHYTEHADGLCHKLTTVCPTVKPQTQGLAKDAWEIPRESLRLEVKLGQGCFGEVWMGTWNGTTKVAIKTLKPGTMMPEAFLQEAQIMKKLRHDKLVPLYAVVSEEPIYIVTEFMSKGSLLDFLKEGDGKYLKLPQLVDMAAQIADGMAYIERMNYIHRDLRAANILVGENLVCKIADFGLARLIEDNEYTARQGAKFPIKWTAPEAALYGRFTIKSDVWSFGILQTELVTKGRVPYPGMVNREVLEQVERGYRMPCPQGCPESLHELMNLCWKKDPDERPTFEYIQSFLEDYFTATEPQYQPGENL

Sequence of MYLK2 (human) (Q9H1R3 whole entry, looked up): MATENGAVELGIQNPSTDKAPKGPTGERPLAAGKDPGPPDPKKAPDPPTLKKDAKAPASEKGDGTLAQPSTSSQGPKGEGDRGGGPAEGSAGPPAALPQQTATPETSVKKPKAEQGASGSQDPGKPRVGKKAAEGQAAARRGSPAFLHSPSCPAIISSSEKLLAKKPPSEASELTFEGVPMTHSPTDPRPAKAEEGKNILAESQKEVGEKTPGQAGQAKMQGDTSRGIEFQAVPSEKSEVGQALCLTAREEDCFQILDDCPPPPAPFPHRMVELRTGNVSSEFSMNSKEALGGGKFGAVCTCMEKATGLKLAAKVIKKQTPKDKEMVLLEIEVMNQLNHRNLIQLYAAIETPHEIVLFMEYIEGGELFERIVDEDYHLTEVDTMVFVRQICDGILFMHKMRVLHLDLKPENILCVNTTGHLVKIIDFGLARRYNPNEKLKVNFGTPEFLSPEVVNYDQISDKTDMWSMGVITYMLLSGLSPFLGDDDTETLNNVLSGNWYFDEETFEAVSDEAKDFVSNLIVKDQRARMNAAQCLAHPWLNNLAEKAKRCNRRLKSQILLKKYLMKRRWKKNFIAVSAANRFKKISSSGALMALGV
Sequence of ANKK1 (human) (Q8NFD2 whole entry, looked up): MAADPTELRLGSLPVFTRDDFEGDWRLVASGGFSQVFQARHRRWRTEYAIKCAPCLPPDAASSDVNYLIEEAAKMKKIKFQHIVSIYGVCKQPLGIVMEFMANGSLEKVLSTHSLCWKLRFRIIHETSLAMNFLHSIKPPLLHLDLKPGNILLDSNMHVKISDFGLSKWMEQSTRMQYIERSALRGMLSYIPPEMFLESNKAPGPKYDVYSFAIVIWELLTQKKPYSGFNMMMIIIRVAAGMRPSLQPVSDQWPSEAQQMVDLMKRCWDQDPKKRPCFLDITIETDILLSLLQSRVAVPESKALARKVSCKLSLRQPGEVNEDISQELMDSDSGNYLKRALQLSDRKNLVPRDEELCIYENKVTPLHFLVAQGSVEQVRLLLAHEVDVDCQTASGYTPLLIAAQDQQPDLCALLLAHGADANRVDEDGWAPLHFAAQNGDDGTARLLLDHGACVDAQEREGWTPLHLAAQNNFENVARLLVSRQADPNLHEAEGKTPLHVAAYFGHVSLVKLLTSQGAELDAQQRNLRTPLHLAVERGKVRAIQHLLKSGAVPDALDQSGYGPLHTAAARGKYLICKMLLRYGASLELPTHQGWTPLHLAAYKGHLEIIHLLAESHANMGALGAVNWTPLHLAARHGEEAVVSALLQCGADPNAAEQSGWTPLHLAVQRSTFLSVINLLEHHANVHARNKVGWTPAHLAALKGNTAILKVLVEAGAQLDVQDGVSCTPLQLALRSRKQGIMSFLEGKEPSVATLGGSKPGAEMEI
Sequence of MAP2K7 (human) (O14733 whole entry, looked up): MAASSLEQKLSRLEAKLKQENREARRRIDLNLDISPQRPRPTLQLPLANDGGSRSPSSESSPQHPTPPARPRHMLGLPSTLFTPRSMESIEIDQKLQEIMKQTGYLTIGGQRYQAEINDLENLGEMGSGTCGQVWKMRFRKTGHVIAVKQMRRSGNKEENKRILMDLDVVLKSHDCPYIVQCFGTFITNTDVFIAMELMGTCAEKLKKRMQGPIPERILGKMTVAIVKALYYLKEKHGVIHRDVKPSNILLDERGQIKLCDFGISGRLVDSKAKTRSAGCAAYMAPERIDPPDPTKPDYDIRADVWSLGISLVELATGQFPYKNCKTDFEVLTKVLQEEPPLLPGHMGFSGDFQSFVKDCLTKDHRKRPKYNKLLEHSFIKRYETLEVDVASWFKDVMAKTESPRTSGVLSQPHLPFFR
Sequence of PLK2 (human) (Q9NYY3 whole entry, looked up): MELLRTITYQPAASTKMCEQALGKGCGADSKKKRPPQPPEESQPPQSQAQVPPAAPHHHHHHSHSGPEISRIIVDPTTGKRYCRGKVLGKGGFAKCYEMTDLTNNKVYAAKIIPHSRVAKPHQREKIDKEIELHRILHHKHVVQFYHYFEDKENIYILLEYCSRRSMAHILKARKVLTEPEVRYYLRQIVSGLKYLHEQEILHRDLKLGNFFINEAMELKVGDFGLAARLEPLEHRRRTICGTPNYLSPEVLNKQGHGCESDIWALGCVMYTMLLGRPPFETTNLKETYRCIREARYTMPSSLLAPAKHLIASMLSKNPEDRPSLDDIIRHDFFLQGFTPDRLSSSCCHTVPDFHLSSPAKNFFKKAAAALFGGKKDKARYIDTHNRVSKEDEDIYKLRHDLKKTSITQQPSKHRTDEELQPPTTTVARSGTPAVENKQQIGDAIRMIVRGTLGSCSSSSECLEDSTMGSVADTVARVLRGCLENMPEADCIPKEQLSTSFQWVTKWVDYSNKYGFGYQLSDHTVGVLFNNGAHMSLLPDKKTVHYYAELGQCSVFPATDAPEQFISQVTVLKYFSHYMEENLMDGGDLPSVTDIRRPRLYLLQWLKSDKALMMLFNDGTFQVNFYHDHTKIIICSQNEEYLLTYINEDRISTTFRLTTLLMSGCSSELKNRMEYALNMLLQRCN
Sequence of RPS6KA4 KD2 (human) (O75676 whole entry, looked up): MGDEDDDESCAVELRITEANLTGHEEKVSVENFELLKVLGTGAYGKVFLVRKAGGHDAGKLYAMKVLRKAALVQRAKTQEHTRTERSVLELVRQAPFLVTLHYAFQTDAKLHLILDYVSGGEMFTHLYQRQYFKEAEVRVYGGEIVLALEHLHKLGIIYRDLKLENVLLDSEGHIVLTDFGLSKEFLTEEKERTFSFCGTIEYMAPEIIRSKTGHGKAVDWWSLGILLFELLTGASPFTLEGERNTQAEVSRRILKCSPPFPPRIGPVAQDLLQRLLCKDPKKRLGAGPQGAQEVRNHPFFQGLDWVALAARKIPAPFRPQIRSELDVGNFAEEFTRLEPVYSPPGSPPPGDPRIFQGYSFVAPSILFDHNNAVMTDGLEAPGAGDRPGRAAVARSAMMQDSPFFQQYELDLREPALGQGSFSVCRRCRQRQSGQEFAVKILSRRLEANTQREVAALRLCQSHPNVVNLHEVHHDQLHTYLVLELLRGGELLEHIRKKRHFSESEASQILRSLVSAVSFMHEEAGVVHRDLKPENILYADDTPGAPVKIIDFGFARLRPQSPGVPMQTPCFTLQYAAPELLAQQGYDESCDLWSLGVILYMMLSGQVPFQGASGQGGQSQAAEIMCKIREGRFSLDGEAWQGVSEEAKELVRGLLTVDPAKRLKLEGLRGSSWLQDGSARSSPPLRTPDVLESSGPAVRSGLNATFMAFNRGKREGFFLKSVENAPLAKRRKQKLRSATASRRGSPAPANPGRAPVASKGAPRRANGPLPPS
Sequence of GSK3B (human) (P49841 whole entry, looked up): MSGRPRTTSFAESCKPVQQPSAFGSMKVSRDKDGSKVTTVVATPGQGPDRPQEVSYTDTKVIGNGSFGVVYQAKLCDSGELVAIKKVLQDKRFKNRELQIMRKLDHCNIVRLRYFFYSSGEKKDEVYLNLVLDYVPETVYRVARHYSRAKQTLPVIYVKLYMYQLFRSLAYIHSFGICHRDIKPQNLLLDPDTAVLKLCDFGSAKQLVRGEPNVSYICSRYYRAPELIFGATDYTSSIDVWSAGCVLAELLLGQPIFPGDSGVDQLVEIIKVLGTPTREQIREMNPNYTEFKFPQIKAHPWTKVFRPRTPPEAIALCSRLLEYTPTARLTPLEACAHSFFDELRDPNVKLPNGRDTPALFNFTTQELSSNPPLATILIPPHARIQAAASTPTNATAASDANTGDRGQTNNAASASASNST
Sequence of CSNK2A2 (human) (P19784 whole entry, looked up): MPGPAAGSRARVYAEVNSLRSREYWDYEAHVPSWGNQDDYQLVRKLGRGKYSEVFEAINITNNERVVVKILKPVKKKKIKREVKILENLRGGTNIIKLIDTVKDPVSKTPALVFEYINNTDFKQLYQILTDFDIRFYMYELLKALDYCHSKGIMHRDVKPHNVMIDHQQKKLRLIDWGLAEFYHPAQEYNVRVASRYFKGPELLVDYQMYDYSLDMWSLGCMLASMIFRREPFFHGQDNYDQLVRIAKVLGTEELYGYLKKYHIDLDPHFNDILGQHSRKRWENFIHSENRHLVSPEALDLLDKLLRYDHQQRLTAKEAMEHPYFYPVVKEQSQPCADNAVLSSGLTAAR
Sequence of CRK2 (P.falciparum) (P61075 whole entry, looked up): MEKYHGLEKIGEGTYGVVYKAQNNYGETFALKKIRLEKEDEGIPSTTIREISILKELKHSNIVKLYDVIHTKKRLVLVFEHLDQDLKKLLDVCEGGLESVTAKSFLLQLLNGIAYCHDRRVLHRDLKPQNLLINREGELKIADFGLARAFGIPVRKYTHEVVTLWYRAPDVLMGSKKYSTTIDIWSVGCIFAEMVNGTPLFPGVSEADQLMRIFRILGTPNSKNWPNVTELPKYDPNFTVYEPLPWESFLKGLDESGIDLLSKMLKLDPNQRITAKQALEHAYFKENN

`CN(C)C/C=C/C(=O)Nc1ccc(C(=O)Nc2cccc(Nc3nccc(-c4cccnc4)n3)c2)cc1` gave a kinase still bound, per cent of control [1] of 40%, a kinase still bound, per cent of control (ANKK1 (human)) of 8.1% and a kinase still bound, per cent of control (AURKA (human)) of 11%. It also gave a kinase still bound, per cent of control (CHEK2 (human)) of 86%, a kinase still bound, per cent of control (CRK2 (P.falciparum)) of 100% and a kinase still bound, per cent of control (CSF1R (human)) of 100%. The kinase still bound, per cent of control (CSNK2A2 (human)) was 5.2%, the kinase still bound, per cent of control (CaMK1 (human)) was 94% and the kinase still bound, per cent of control (EIF2AK2 (human)) was 50%. The kinase still bound, per cent of control (FGFR4 (human)) was 100%, the kinase still bound, per cent of control (GAK (human)) was 3.6% and the kinase still bound, per cent of control (GRK1 (human)) was 98%. For the same molecule, the kinase still bound, per cent of control (GSK3B (human)) was 67%, the kinase still bound, per cent of control (IRAK1 (human)) was 0.9% and the kinase still bound, per cent of control (KIT (human)) was 3.8%. The kinase still bound, per cent of control (MAP2K1 (human)) was 92%, the kinase still bound, per cent of control (MAP2K7 (human)) was 80% and the kinase still bound, per cent of control (MAP3K10 (human)) was 94%. For the same molecule, the kinase still bound, per cent of control (MAP3K15 (human)) was 56%, the kinase still bound, per cent of control (MAP4K3 (human)) was 57% and the kinase still bound, per cent of control (MAPKAPK2 (human)) was 100%. For the same molecule, the kinase still bound, per cent of control (MATK (human)) was 91%, the kinase still bound, per cent of control (MERTK (human)) was 100% and the kinase still bound, per cent of control (MYLK2 (human)) was 53%. For the same molecule, the kinase still bound, per cent of control (PAK1 (human)) was 90%, the kinase still bound, per cent of control (PIK3CG (human)) was 13% and the kinase still bound, per cent of control (PIP5K1C (human)) was 20%. For the same molecule, the kinase still bound, per cent of control (PLK2 (human)) was 81%, the kinase still bound, per cent of control (PRKCI (human)) was 100% and the kinase still bound, per cent of control (ROCK1 (human)) was 48%. For the same molecule, the kinase still bound, per cent of control (RPS6KA1 KD2 (human)) was 91%, the kinase still bound, per cent of control (RPS6KA4 KD2 (human)) was 80% and the kinase still bound, per cent of control (SIK1 (human)) was 100%. The kinase still bound, per cent of control (SRC (human)) was 100%, the kinase still bound, per cent of control (STK17A (human)) was 6.4% and the kinase still bound, per cent of control (STK17B (human)) was 19%. It also gave a kinase still bound, per cent of control (STK24 (human)) of 100%, a kinase still bound, per cent of control (SYK (human)) of 23% and a kinase still bound, per cent of control (ULK3 (human)) of 88%. It also gave a kinase still bound, per cent of control (YES1 (human)) of 100%.
Molecule `COc1cc(C(=O)N2CCC(N3CCN(C)CC3)CC2)ccc1Nc1ncc2c(n1)N(C)c1ccccc1C(=O)N2C` has a kinase still bound, per cent of control [1] of 89%, a kinase still bound, per cent of control (ANKK1 (human)) of 100% and a kinase still bound, per cent of control (AURKA (human)) of 1.2%. The kinase still bound, per cent of control (CHEK2 (human)) was 66%, the kinase still bound, per cent of control (CRK2 (P.falciparum)) was 100% and the kinase still bound, per cent of control (CSF1R (human)) was 98%. It also gave a kinase still bound, per cent of control (CSNK2A2 (human)) of 93%, a kinase still bound, per cent of control (CaMK1 (human)) of 55% and a kinase still bound, per cent of control (EIF2AK2 (human)) of 84%. For the same molecule, the kinase still bound, per cent of control (FGFR4 (human)) was 28%, the kinase still bound, per cent of control (GAK (human)) was 16% and the kinase still bound, per cent of control (GRK1 (human)) was 91%. The kinase still bound, per cent of control (GSK3B (human)) was 88%, the kinase still bound, per cent of control (IRAK1 (human)) was 100% and the kinase still bound, per cent of control (KIT (human)) was 100%. It also gave a kinase still bound, per cent of control (MAP2K1 (human)) of 100%, a kinase still bound, per cent of control (MAP2K7 (human)) of 100% and a kinase still bound, per cent of control (MAP3K10 (human)) of 100%. It also gave a kinase still bound, per cent of control (MAP3K15 (human)) of 69%, a kinase still bound, per cent of control (MAP4K3 (human)) of 71% and a kinase still bound, per cent of control (MAPKAPK2 (human)) of 100%. It also gave a kinase still bound, per cent of control (MATK (human)) of 100%, a kinase still bound, per cent of control (MERTK (human)) of 100% and a kinase still bound, per cent of control (MYLK2 (human)) of 98%. The kinase still bound, per cent of control (PAK1 (human)) was 95%, the kinase still bound, per cent of control (PIK3CG (human)) was 15% and the kinase still bound, per cent of control (PIP5K1C (human)) was 96%. It also gave a kinase still bound, per cent of control (PLK2 (human)) of 100%, a kinase still bound, per cent of control (PRKCI (human)) of 100% and a kinase still bound, per cent of control (ROCK1 (human)) of 100%. The kinase still bound, per cent of control (RPS6KA1 KD2 (human)) was 10%, the kinase still bound, per cent of control (RPS6KA4 KD2 (human)) was 46% and the kinase still bound, per cent of control (SIK1 (human)) was 77%. The kinase still bound, per cent of control (SRC (human)) was 100%, the kinase still bound, per cent of control (STK17A (human)) was 100% and the kinase still bound, per cent of control (STK17B (human)) was 93%. It also gave a kinase still bound, per cent of control (STK24 (human)) of 87%, a kinase still bound, per cent of control (SYK (human)) of 100% and a kinase still bound, per cent of control (ULK3 (human)) of 100%. For the same molecule, the kinase still bound, per cent of control (YES1 (human)) was 100%.
